Activity calls are given as the source filed them. How the calls were made is not given here.

The target of the experiment is Chaperone protein DnaK (Escherichia coli (strain K12)) (UniProt P0A6Y8). The experiment is described as follows: binders of DnaK substrate-binding domain, biophysical, NMR, chaperone (AID 1033). The note with it: Purified DnaK SBD, NMR ligand binding.
Chain of Chaperone protein DnaK (Escherichia coli (strain K12)) (P0A6Y8 whole entry, looked up, the tested form may be a part): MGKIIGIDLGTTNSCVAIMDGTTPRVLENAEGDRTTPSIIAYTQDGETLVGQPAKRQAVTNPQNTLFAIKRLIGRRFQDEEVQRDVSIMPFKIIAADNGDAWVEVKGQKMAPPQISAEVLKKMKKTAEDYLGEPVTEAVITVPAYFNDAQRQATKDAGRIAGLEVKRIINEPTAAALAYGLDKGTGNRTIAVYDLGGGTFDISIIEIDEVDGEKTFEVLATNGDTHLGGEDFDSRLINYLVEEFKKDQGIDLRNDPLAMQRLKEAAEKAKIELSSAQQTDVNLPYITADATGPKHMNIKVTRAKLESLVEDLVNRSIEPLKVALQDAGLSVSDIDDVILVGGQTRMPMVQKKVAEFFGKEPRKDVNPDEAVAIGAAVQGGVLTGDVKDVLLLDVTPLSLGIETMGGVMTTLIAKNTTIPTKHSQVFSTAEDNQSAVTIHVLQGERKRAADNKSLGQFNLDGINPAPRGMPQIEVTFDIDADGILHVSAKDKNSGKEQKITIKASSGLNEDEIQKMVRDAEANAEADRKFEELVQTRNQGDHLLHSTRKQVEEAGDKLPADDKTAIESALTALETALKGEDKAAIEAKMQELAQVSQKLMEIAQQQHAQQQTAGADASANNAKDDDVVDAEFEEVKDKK
`NC(=O)Cn1nc(-c2ccc(F)cc2)ccc1=O`: the Kd is > 4 mM (inactive).

Consider `O=C(NC12CC3CC(CC(C3)C1)C2)c1cnccn1`, for which the Kd was > 4 mM (inactive). Take `C(=C\c1ccccc1)/C=N/n1cnnc1`: the Kd is > 4 mM (inactive). Next, `Cc1onc(-c2ccccc2)c1C(=O)Nc1ccncc1`: > 4 mM (inactive); `Cc1c(C)c2c(c(C)c1O)CCC(C)(CCCC(C)CCCC(C)CCCC(C)C)O2` (stereo not drawn): > 4 mM (inactive).

Regarding `O=c1n(-c2ccccc2)c(=O)n2n1CCCC2`, the Kd is > 4 mM (inactive). As for `CSc1nc(NC(C)(C)C)nc(N2CCOCC2)n1`, the figure is > 4 mM (inactive); as for `Nc1nc(SCc2ccc3c(c2)OCCO3)n[nH]1`, > 4 mM (inactive). For the molecule `CC(C)=CCC1=C(O)c2ccccc2C(=O)C1=O`, the Kd is > 4 mM (inactive). As for `O=C(CSC1=NCCS1)N1CCc2ccccc21`, the figure is > 4 mM (inactive). With `CNC(=O)Nc1ccc(C(=O)NC)cc1`, the Kd was > 4 mM (inactive). Consider `NC(=O)C1CCN(C(=S)c2cccs2)CC1`, for which the Kd is > 4 mM (inactive).

Consider `CN1CCN(c2ccc(N)cc2)CC1`, for which the Kd was > 4 mM (inactive). Regarding `Nc1ccc(S(=O)(=O)Nc2ccc(F)cc2F)cc1`, the Kd was > 4 mM (inactive). Take `O=C(NC1CSCC1O)c1ccccc1` (stereo not drawn): the Kd is > 4 mM (inactive). Regarding `Cc1ccccc1NC(=S)NCCO`, the Kd is > 4 mM (inactive). Turning to `Oc1ccc(C(=S)N2CCOCC2)cc1`, the Kd was > 4 mM (inactive).

With `COc1ccccc1NC(=O)/C=N/O`, the Kd was > 4 mM (inactive). Consider `NCc1cn2ccccc2n1`, for which the Kd was > 4 mM (inactive). Regarding `Nc1cccc2nonc12`, the Kd was > 4 mM (inactive). Consider `CC(=O)Nc1nnc(-c2ccccc2S(C)(=O)=O)o1`, for which the Kd is > 4 mM (inactive). As for `O=C1NC(=S)NC(=O)C1=Cc1ccco1`, the figure is > 4 mM (inactive). For the molecule `CC(=O)c1c(C)nc(-c2ccc(F)cc2)n1O`, the Kd was > 4 mM (inactive).

Take `COC(=O)c1ccc(C(=S)N2CCOCC2)cc1`: the Kd is > 4 mM (inactive).

For `CC(=O)O[C@H]1C[C@@H](OC(C)=O)C(C)(C)C2C[C@@H](OC(C)=O)[C@]3(C)C(CC[C@@]4(C)[C@H](c5ccoc5)C(=O)[C@H]5O[C@]543)[C@]21C` (stereo partly drawn), the Kd is > 4 mM (inactive). For `CCC(=O)NC(=S)Nc1ccc(O)cc1`, the Kd was > 4 mM (inactive). As for `Cc1cc(NS(=O)(=O)Cc2ccccc2)no1`, the figure is > 4 mM (inactive); as for `Cc1noc(C)c1C(=O)N1CCc2ccccc21`, > 4 mM (inactive); as for `CSc1nc(-c2ccco2)nn1S(C)(=O)=O`, > 4 mM (inactive). For `CN1CCN(C(=O)c2ccco2)CC1`, the Kd was > 4 mM (inactive). For `CC(=O)c1c(O)n(C)c(=S)n(C)c1=O`, the Kd is > 4 mM (inactive). As to `CCOc1ccc(C(=O)c2ccc(O)c(O)c2O)cc1`, the Kd was > 4 mM (inactive). Next, `O=C(Nc1nnc(-c2ccco2)o1)c1ccc([N+](=O)[O-])o1`: > 4 mM (inactive); `Cn1c(O)c(C=NCC2CCNCC2)c(=O)n(C)c1=O`: > 4 mM (inactive). As for `CSc1ccccc1NC(=O)c1ccoc1C`, the figure is > 4 mM (inactive); as for `CC(NC(=O)C1CCCCC1)C(=O)NC1=NCCS1` (stereo not drawn), > 4 mM (inactive). `O=C1c2ccccc2-c2ncnc3cccc1c23`: the Kd was > 4 mM (inactive). Turning to `CCC1(CC)C(=O)NC(=O)N=C1N`, the Kd was > 4 mM (inactive). As to `O=C(Nc1nnc(C(F)(F)F)s1)c1cccnc1`, the Kd is > 4 mM (inactive). For the molecule `O=C1NC(=S)N/C1=C\c1cccnc1`, the Kd was > 4 mM (inactive). On to `C[C@@H]1CC[C@@]2(NC1)O[C@H]1C[C@H]3C4CC=C5C[C@@H](O)CC[C@]5(C)C4CC[C@]3(C)C1[C@@H]2C` (stereo partly drawn), for which the Kd is > 4 mM (inactive). With `Cc1nc2ccccc2c(=O)n1N1C(=O)CCCC1=O`, the Kd is > 4 mM (inactive). Take `O=S1(=O)NC(=NCc2ccccc2)c2ccccc21`: the Kd was > 4 mM (inactive). As to `CC(=O)Nc1ccc(NC(=O)c2ccncc2)cc1`, the Kd is > 4 mM (inactive). `OCc1ccc(-n2ccnc2)cc1`: the Kd was > 4 mM (inactive).

Regarding `C/C(=N\NC(N)=S)C(=O)O`, the Kd was > 4 mM (inactive). Next, `CC(C)n1c(-c2ccncc2)n[nH]c1=S`: > 4 mM (inactive); `Cn1nnc2cc(C(=O)O)ccc21`: > 4 mM (inactive); `Cc1ccc(N2CCN(C(=O)c3ccccc3)CC2)c(C)c1`: > 4 mM (inactive). For `Cc1nc(SCC#N)c2c3c(sc2n1)CCC3`, the Kd was > 4 mM (inactive). Take `COCc1cc(C)nc2sc(C(=O)OC)c(N)c12`: the Kd was > 4 mM (inactive).

Regarding `OCc1c[nH]c2ccccc12`, the Kd was > 4 mM (inactive). In the case of `Nc1ccccc1-c1nc2ccccc2[nH]1`, the Kd was > 4 mM (inactive).

For the molecule `COc1cc(O)c2c(=O)cc(-c3ccc(OC)c(-c4c(O)cc(O)c5c(=O)cc(-c6ccc(O)cc6)oc45)c3)oc2c1`, the Kd is > 4 mM (inactive). Take `Fc1ccc(NC2=NCCS2)cc1Cl`: the Kd is > 4 mM (inactive). For the molecule `CC1(C)NC(=O)N(CN2CCOCC2)C1=O`, the Kd was > 4 mM (inactive).

Regarding `O=C(Oc1ccc(-c2nnco2)cc1)N1CCOCC1`, the Kd is > 4 mM (inactive).

Turning to `COc1ccc2cc1Oc1ccc(cc1)C[C@H]1c3c(cc4c(c3Oc3cc5c(cc3OC)CCN(C)[C@@H]5C2)OCO4)CCN1C`, the Kd was > 4 mM (inactive). For the molecule `CSc1ccc(/C=c2\sc3ncnn3c2=O)cc1`, the Kd was > 4 mM (inactive).

Consider `Cc1noc(C)c1C(=O)Nc1ccc2c(c1)CCC2`, for which the Kd is > 4 mM (inactive). `O=C(O)c1ccc(-n2ccnc2)cc1`: the Kd is > 4 mM (inactive).

As for `C=C1C(N)CC2CC1C2(C)C` (stereo not drawn), the Kd is > 4 mM (inactive). As for `NC(C(=O)O)C(O)c1ccccc1` (stereo not drawn), the figure is > 4 mM (inactive); as for `CC[C@@H]1[C@@H](O)N2C3C[C@H]1C1C(O)[C@]4(C[C@@H]12)c1ccccc1N(C)[C@@H]34` (stereo partly drawn), > 4 mM (inactive); as for `N=C1/C(=C\c2ccccc2)C(=O)N=C2SC=NN12`, > 4 mM (inactive).

On to `CC(=O)Nc1sccc1C(=O)NC(N)=O`, for which the Kd is > 4 mM (inactive). Consider `OCc1ccc2nsnc2c1`, for which the Kd is > 4 mM (inactive). Turning to `COC(=O)C1CSCC1=O` (stereo not drawn), the Kd was > 4 mM (inactive).

Regarding `O=c1[nH]cnc2nc[nH]c12`, the Kd was > 4 mM (inactive). With `CSc1nn(-c2ccccc2)c(N)c1C#N`, the Kd is > 4 mM (inactive). For `COc1cccc(/C=C2/SC(N)=NC2=O)c1`, the Kd is > 4 mM (inactive). Regarding `CC(=O)O[C@@H]1C[C@@]2(C)[C@H](c3ccoc3)C[C@H]3O[C@]32[C@]2(C)C(=O)C(O)=C3C(C)(C)C(=O)C=C[C@]3(C)C12` (stereo partly drawn), the Kd was > 4 mM (inactive). Turning to `CCC(=O)Oc1ccc(N2C(=O)CCC2=O)cc1`, the Kd was > 4 mM (inactive). Regarding `CCSc1nc2ccccc2[nH]1`, the Kd was > 4 mM (inactive). For `Clc1ncnc2[nH]ncc12`, the Kd was > 4 mM (inactive). As to `O=C1N=c2ccccc2=C1c1[nH]c(=S)[nH]c1O`, the Kd was > 4 mM (inactive). As for `O=C(NCc1cccc2ccccc12)c1cccs1`, the figure is < 0.2 mM; as for `Cn1c(=O)n(-c2cccc(Cl)c2)c(=O)n1C`, > 4 mM (inactive).

As to `Cc1onc(-c2ccccc2)c1CO`, the Kd was > 4 mM (inactive). Regarding `CN1CCN(c2ccc(C(=O)O)cc2)CC1`, the Kd was > 4 mM (inactive).

With `Brc1ccc(-c2nc(-c3ccncc3)no2)o1`, the Kd is > 4 mM (inactive). `CC1(C)C(=O)[C@@H]2C[C@@]3(O)C4=CC(=O)O[C@@H](c5ccoc5)[C@]4(C)CCC3C(C)(C2=O)[C@H]1CC(=O)O` (stereo partly drawn): the Kd is > 4 mM (inactive). As for `O=C(c1ccccc1)c1ccc(N2CCNCC2)cc1`, the figure is > 4 mM (inactive); as for `O=c1c2ccccc2nc2n1CCC2O` (stereo not drawn), > 4 mM (inactive); as for `Cc1nc(CC(=O)O)c(-c2ccccc2)s1`, > 4 mM (inactive). For the molecule `O=C1CN(C(=O)c2ccccc2F)c2ccccc2N1`, the Kd is > 4 mM (inactive).

`Cc1ccccc1N1CCN(C(=O)C2CCCCC2)CC1`: the Kd was > 4 mM (inactive). On to `CC(=O)Nc1ccc(CN2CCOCC2)cc1`, for which the Kd was > 4 mM (inactive). In the case of `CS(=O)(=O)c1ccc2nc(N)sc2c1`, the Kd was > 4 mM (inactive). For the molecule `O=c1c(O)cc([C@H]2Oc3cc(O)cc(O)c3C[C@H]2O)cc2c([C@H]3Oc4cc(O)cc(O)c4C[C@H]3O)cc(O)c(O)c12`, the Kd was > 4 mM (inactive). Take `CC(=O)Nc1cccc(Cn2cccn2)c1`: the Kd is > 4 mM (inactive). `NC(=O)c1oc2ccccc2c1N`: the Kd is > 4 mM (inactive). Next, `O=C1C=C(O)c2ccccc2C1=O`: > 4 mM (inactive); `Cc1occc1C(=O)N1CCC2(CC1)OCCO2`: > 4 mM (inactive). As to `CC(N)C(=O)c1ccco1` (stereo not drawn), the Kd was > 4 mM (inactive). Turning to `CC(=O)O[C@H]1CCC2(C)C3=C(CCC2C1(C)C)[C@]1(C)CCC(C(C)CCC=C(C)C)[C@@]1(C)CC3` (stereo partly drawn), the Kd was > 4 mM (inactive). Take `COc1ccc(CN2CCNC(=O)C2CC(=O)O)cc1C` (stereo not drawn): the Kd is > 4 mM (inactive). As to `CC1CCN(S(=O)(=O)N(C)C)CC1`, the Kd is > 4 mM (inactive).

Regarding `Cc1cc(/C=N/O)nc(=O)[nH]1`, the Kd was > 4 mM (inactive). As to `COc1ccc(S(=O)(=O)NCCO)cc1`, the Kd is > 4 mM (inactive). On to `O=C(O)CCN1CCc2ccccc2C1c1ccncc1` (stereo not drawn), for which the Kd is > 4 mM (inactive). With `COc1ccccc1NS(=O)(=O)c1c[nH]c(=O)[nH]c1=O`, the Kd is > 4 mM (inactive). In the case of `O=C(NC1CCS(=O)(=O)C1)C1CCCCC1` (stereo not drawn), the Kd was > 4 mM (inactive).
